From patent US9937194B1, “Compounds and methods for treating inflammatory diseases” (priority 2009, dated 2018)
≈ marks a conversion by molar mass, not a printed value. Where “and” joins values, the source holds several entries; their conditions need not be identical. Equal entries are not always repeated. Where two headings read alike, the source gives them in different places.

What was measured:
HDAC activity = assay: H2O2-induced reduction of HDAC activity in PMA-differentiated U937 cells; assay type: cell-based, human; conditions: for restoration of H2O2-reduced HDAC activity (%): test concentration not given, bracketed second value not explained
Method: In cell HDAC assay. Cells are incubated with Fluor de Lys™ substrate for 1 hr before lyses. Total HDAC activity from whole cell extracts is measured using the HDAC Fluorimetric Assay/Drug Discovery Kit (BIOMOL® International, Inc., Plymouth Meeting, Pa.).
HDAC expression: In cell HDAC activity assay: U937 is differentiated to macrophage type cells by PMA for 3 days. HDAC fluorescent substrate (Biomol) is added before exposure of oxidative stress (H2O2, 200 μM) or Tobacco smoke conditioned medium for 4 hrs. HDAC activity is measured (Biomol kit). Compounds at different concentrations are treated 20 min before oxidative stress treatment.
PMA-differentiated macrophage-like cells are pretreated with compounds described herein for 20 min. After H2O2 (200 μM) stimulation for 4 hrs, HDAC activity is assayed. Data are expressed as fold changes against positive control treated with H2O2 only. Values represent means of four experiments±SEM.

Akt = assay: H2O2-induced phosphorylation of Akt in PMA-differentiated U937 cells (western blot); assay type: cell-based, human; conditions: PMA-differentiated U937; H2O2 1 mM 30 min
Method: Cell Lysis and Western Blotting. Whole cell protein extracts are prepared using modified RIPA buffer (50 mM Tris HCL pH 7.4, 0.5% NP-40, 0.25% Na-deoxycholate, 150 mM NaCl with freshly added complete protease (Roche). Phosphatase inhibitor (Active Motif) is also added when required. Protein concentration is determined using the Bio-Rad Protein Assay (Bio-Rad). Proteins are separated by SDS-PAGE under denaturing conditions, and electrotransferred to a nitrocellulose membrane (Amersham Biosciences, Amersham, U.K.) (Western blotting). The membranes are blocked in TBS containing 0.05% Tween 20 and 5% non-fat dried milk, and then incubated with anti-pAkt or Akt antibody followed by an horse radish peroxidase-conjugated secondary antibody (Dako UK Ltd., Ely, UK). Bound antibodies are visualized by ECL Plus (GE Healthcare UK Ltd., Little Chalfont, UK). The band density is calculated by densitometry (UVP Bioimaging Systems, Cambridge, UK) using Labworks software (Ultra-Violet Products, Cambridge, UK).
Effects of compounds on H2O2-induced phosphorylation of Akt in PMA-differentiated U937 cells. PMA-differentiated macrophage-like cells are pretreated with compounds described herein for 20 min. After H2O2 (1 mM) stimulation for 30 min, cells are lysed. Phosphorylation levels of Akt are measured by western blot. Data are calculated relative to total protein, and expressed as fold changes against positive control treated with H2O2 only. Values represent means of three or four experiments±SEM.

IL-8 = assay: LPS-induced IL-8 release in PMA-differentiated U937 cells (ELISA); assay type: cell-based, human; conditions: for IL-8 inhibition (%): test concentration not given
Method: (§1) Cytokine ELISA. LPS-induced IL-8, TNFα concentrations and TNFα-induced IL-8 concentrations are determined by sandwich ELISA according to the manufacturer's instructions (R&D Systems Europe). IC50 values for dexamethasone on IL-8 production are calculated using the computer program Prism 4.0 (GraphPad Software Inc., San Diego, Calif.) as a marker for steroid sensitivity.
(§2) Effects of compounds on LPS-induced IL-8 and TNFα release in PMA-differentiated U937 cells. PMA-differentiated macrophage-like cells are pretreated with compounds described herein for 1 hr, followed by LPS (100 ng/ml) stimulation for 4 hrs. LPS-induced IL-8 and TNFα release is evaluated by ELISA. Values represent means of three experiments±SEM.

TNFα = assay: LPS-induced TNFα release in PMA-differentiated U937 cells (ELISA); assay type: cell-based, human; conditions: for TNFα inhibition (%): test concentration not given
Method: as §1, §2

MMP9 = assay: PMA-induced MMP9 expression in U937 cells (gelatin zymography); assay type: cell-based, human; conditions: for MMP9 inhibition (%): test concentration not given, bracketed second value not explained
Method: Zymography. MMP9 enzyme activity is measured by gelatin zymography. 5 μl of supernatants were diluted with 5 μl Laemli sample buffer (Bio-Rad) and are loaded on a Novex® 10% Zymogram (Gelatin) gel (Invitrogen). After electrophoresis (90 min, 125 V, 35 mA, 5 W) gels are incubated with 1× Novex® zymogram renaturing buffer (Invitrogen) for 30 min at room temperature with gentle agitation. Gels are then rinsed in 1× Novex® zymogram developing buffer (Invitrogen) for 30 min at room temperature with gentle agitation prior to overnight incubation in the developing buffer at 37° C. After incubation the gels are stained using the colloidal blue staining kit (Invitrogen) with buffer containing 20% methanol and 70% distilled water to visualize the zymogen bands. Relevant band intensities are quantified by densitometric analysis using the UVP GelDoc-It system.
Effects of compounds on PMA-induced MMP9 expression in U937 cells. U937 cells are pretreated with compounds described herein for 1 hr, followed by PMA (50 ng/ml) treatment for 48 hrs. After 48 hrs supernatants are collected for zymography. MMP9 enzyme activity is measured by gelatin zymography. Data are expressed as fold changes against positive control treated with PMA only. Values represent means of three experiments±SEM.

U937 cells = assay: H2O2-induced steroid insensitivity in U937 cells (dexamethasone IC50 on TNFα-induced IL-8); assay type: cell-based, human; conditions: highest concentration tested (100 μM); H2O2 200 μM
Method: as §1
Restoration of steroid sensitivity. U937 cells: U937 are treated with oxidative stress (H2O2, 200 μM or 0.15 dilution CSM (cigarette smoke conditioned medium)) and 4 hours later, stimulated with TNFα (10 ng/ml) in the presence of dexamethasone (10^−11-10^−6M). Supernatant and cells are collected 24 hrs after stimulation and IL-8 is measured by conventional ELISA. As the index of corticosteroid sensitivity, IC50 of dexamethasone is calculated. Test compounds are treated 20 min before oxidative stress treatment.
Effects of compounds on H2O2-induced steroid insensitivity in U937 cells. Cells stimulated with H2O2 (200 μM) overnight are incubated with compounds described herein for 30 min under H2O2 (200 μM) exposure. The cells are treated with dexamethasone (10^−11 to 10^−6 M) for 20 min, followed by the TNFα stimulation overnight. TNFα-induced IL-8 release is evaluated by ELISA and IC50 values for dexamethasone on IL-8 production are calculated using Prism. Data are expressed as fold changes against positive control treated with H2O2 only. Values represent means of four experiments±SEM. H2O2 exposure reduces dexamethasone sensitivity by approximately 4 fold based on calculated IC50 values of TNFα-induced IL-8 production.

[1] = assay type: cell-based
Method: The human monocytic cell line U937 and the human type II alveolar epithelial carcinoma cell line A549 were obtained from the American Type Culture Collection (ATCC, Rockville, Md.). PBMCs from COPD patients were obtained in Brompton hospital and separated by AccuSPIN (Sigma-Aldrich, Poole, UK). Cells were cultured in complete growth medium (Sigma-Aldrich) (RPMI 1640 for U937, PBMCs, and Dulbecco's modified essential medium (DMEM) for A549) supplemented with 10% fetal bovine serum (FBS) and 1% L-glutamine at 37° C. in a humidified atmosphere with 5% CO2. U937 were differentiated into an adherent macrophage-like morphology by exposure to PMA (50 or 100 ng/ml) for 48 hrs in complete growth medium. Cell viability was assessed microscopically by trypan blue staining. Cell toxicity was determined by MTT assay as needed. This study was approved by the ethics committee of the Royal Brompton Hospitals, and all subjects gave written informed consent.

A/J mice exposed to LPS = assay: Anti-inflammatory activity in vivo: A/J mice exposed to LPS intranasally; conditions: intranasal, 1 hr before LPS challenge
K. pneumonia 13883 = assay: MIC; assay type: cell-based; conditions: in µg/mL
E. coli ATCC 25922 = assay: MIC; assay type: cell-based; conditions: in µg/mL
[2] = system: S. typhimurium ATCC 14028; assay: MIC; assay type: cell-based; conditions: in µg/mL
H. influenzae ATCC 49247 = assay: MIC; assay type: cell-based
H. influenzae LC002 = assay: MIC; assay type: cell-based
S. pneumoniae ATCC 49619 = assay: MIC; assay type: cell-based
S. pneumoniae 163 (MefA) = assay: MIC; assay type: cell-based; conditions: in µg/mL
S. pneumoniae 303 (ErmB) = assay: MIC; assay type: cell-based
[3] = system: S. aureus ATCC 29213 (MSSA) MLS-S; assay: MIC; assay type: cell-based
S. aureus MRSA 33591 = assay: MIC; assay type: cell-based
[4] = system: S. aureus 96:11480 (MLS-I); assay: MIC; assay type: cell-based; design: unit not given beside the values
S. pyogenes ATCC 19615 = assay: MIC; assay type: cell-based; conditions: in µg/mL
E. faecium ATCC 19434 = assay: MIC; assay type: cell-based
P. aeruginosa ATCC 27853 = assay: MIC; assay type: cell-based
[5] = system: N. gonorrhoeae ATCC 49226; assay: MIC; assay type: cell-based; design: unit not given beside the values

| SMILES | restoration of H2O2-reduced HDAC activity (%) (HDAC activity) | IL-8 inhibition (%) (IL-8) | TNFα inhibition (%) (TNFα) | MMP9 inhibition (%) (MMP9) | Cell Toxicity (% cell death) ([1]; test concentration not given) [%] | MIC K. pneumonia 13883 (K. pneumonia 13883) | MIC E. coli ATCC 25922 (E. coli ATCC 25922) | MIC S. typhimurium ATCC 14028 [2] | MIC H. influenzae ATCC 49247 (H. influenzae ATCC 49247) [µg/mL] | MIC H. influenzae LC002 (H. influenzae LC002) [µg/mL] | MIC S. pneumoniae ATCC 49619 (S. pneumoniae ATCC 49619) [µg/mL] | MIC S. pneumoniae 163 (MefA) (S. pneumoniae 163 (MefA)) | MIC S. pneumoniae 303 (ErmB) (S. pneumoniae 303 (ErmB)) [µg/mL] | MIC S. aureus ATCC 29213 (MSSA) MLS-S [3] [µg/mL] | MIC S. aureus MRSA 33591 (S. aureus MRSA 33591) [µg/mL] | MIC S. aureus 96:11480 (MLS-I) [4] | MIC S. pyogenes ATCC 19615 (S. pyogenes ATCC 19615) | MIC E. faecium ATCC 19434 (E. faecium ATCC 19434) [µg/mL] | other results |
| --- | --- | --- | --- | --- | --- | --- | --- | --- | --- | --- | --- | --- | --- | --- | --- | --- | --- | --- | --- |
| CC[C@H]1OC(=O)[C@H](C)[C@@H](O[C@H]2C[C@@](C)(OC)[C@@H](O)[C@H](C)O2)[C@H](C)[C@@H](O[C@@H]2O[C@H](C)C[C@H](N(C)C)[C@H]2O)[C@](C)(O)C[C@@H](C)CN(C)[C@H](C)[C@@H](O)[C@]1(C)O [AZI, azithromycin, reference compound] | 34% | 44 | 31 | 33 (25) % |  |  |  |  |  |  |  |  |  |  |  |  |  |  | restoration of HDAC activity compared with Example 33 (HDAC activity; PMA-differentiated U937, H2O2 200 μM 4 hrs): only at much higher doses than Example 33; HDAC activity reached compared with untreated controls (HDAC activity; PMA-differentiated U937, H2O2 200 μM, comparators at highest doses tested): only restore HDAC activity to levels comparable to untreated controls; inhibition of Akt phosphorylation compared with Example 33 (Akt): only at much higher concentrations than Example 33; inhibition of LPS-induced IL-8 release compared with Example 33 (IL-8; LPS 100 ng/ml 4 hrs): did not show any inhibition at any concentration tested; inhibition of LPS-induced TNFα release compared with Example 33 (TNFα; LPS 100 ng/ml 4 hrs): did not show any inhibition at any concentration tested; restoration of dexamethasone sensitivity (U937 cells): None of ERY, CLR, or AZI restored dexamethasone sensitivity; Cell Toxicity (% cell death) ([1]; human): −16%; anti-inflammatory action in LPS-exposed A/J mice (A/J mice exposed to LPS): have anti-inflammatory action |
| CCC1OC(=O)C(C)C(=O)C(C)C(OC2OC(C)CC(N(C)C)C2O)C(C)(OC)CC(C)C(=O)C(C)C2N(CCCCN)C(=O)OC12C (stereo not drawn) [Example 1] | 68 (53) % | 72 | 73 | 55 (43) % | 6 | >64 | >64 | >64 | > 64 | > 64 | ≤ 0.125 | 0.5 and 1 | > 64 | 8 (≈ 11.7 µM) | > 64 | 8 | 0.25 and 0.5 | 4 (≈ 5.85 µM) | concentration at which the H2O2-induced reduction in HDAC activity is restored (HDAC activity; PMA-differentiated U937, pretreated 20 min, H2O2 200 μM 4 hrs): ≥ 100 µM; concentration at which PMA-induced MMP9 up-regulation is inhibited (MMP9; U937, pretreated 1 hr, PMA 50 ng/ml 48 hrs): ≥ 300 µM |
| CCC1OC(=O)C(C)(F)C(=O)C(C)C(OC2OC(C)CC(N(C)C)C2O)C(C)(OC)CC(C)C(=O)C(C)C2N(CCCCn3cc(Cn4nnc5ccccc54)nn3)C(=O)OC12C (stereo not drawn) [Example 22] | 22 (29) % | 76 | 48 | 38 (23) % | 11 | >64 | >64 | 64 | 2 (≈ 2.26 µM) |  | ≤ 0.125 | 64 | ≤ 0.125 | ≤ 0.125 | > 64 | ≤0.125 |  | ≤ 0.125 | MIC P. aeruginosa ATCC 27853 (P. aeruginosa ATCC 27853): > 64 µg/mL; MIC N. gonorrhoeae ATCC 49226 [5]: 0.25 |
| CC[C@H]1OC(=O)[C@H](C)C(=O)[C@H](C)[C@@H](O[C@@H]2O[C@H](C)[C@@H](OC(C)=O)[C@H](NC(C)=O)[C@H]2OC(C)=O)[C@@](C)(OC)C[C@@H](C)C(=O)[C@H](C)[C@H]2N(CCCCn3cc(-c4ccccn4)nn3)C(=O)O[C@]12C [Example 23] | −13% | 13 | 76 | 32 (31) % | 9 | >64 |  |  | > 64 | > 64 | 4 (≈ 4.31 µM) | 2 | 16 (≈ 17.3 µM) | > 64 | > 64 | >64 | 16 | 16 (≈ 17.3 µM) |  |
